Patent US20240099301A1, “Disinfecting and Sanitizing Composition, Method for Preparing the Composition and Use of Same” (SOCIEDAD QUÍMICA ECOLÓGICA SPA, priority 2021, published 2024)

Columns and labels:
[1] = room temperature; cited from earlier work
[2] = Comparison of products: filmogenic properties; assay type: physicochemical
[3] = Comparison of products: duration of disinfectant effectiveness
[4] = Comparison of products: stability; assay type: physicochemical
[5] = Comparison of products: corrosivity (pH); assay type: physicochemical
[6] = tested on: people; assay: Comparison of products: handling hazards (adverse effects), harm to people; design: species or system human
[7] = tested on: people; assay: Comparison of products: application in the presence of people; design: species or system human
[8] = Comparison of products: compatibility with detergents; assay type: physicochemical

SMILES	concentration with bactericidal activity [1] [%]	concentration with bacteriostatic activity [1] [%]	Filmogenic properties [2]	Duration of effectiveness [3] [days]	Stability [4]	Corrosivity: irritancy [5]	Corrosivity: pH [5]	Handling hazards (adverse effects) ([6]; contact with skin and eyes)	Handling hazards (adverse effects) ([6]; exposure to high concentrations)	Application in the presence of people [7]	Compatibility with detergents [8]
OO [hydrogen peroxide]	6	3	–	–	–	–	–	–	–	–	–
OCl [Sodium hypochlorite]	–	–	No	1	Not stable, chlorine solutions	irritant	~11	Liquid chlorine causes severe burns	cause nausea and vomiting.	No and ventilation recommended	Not compatible. Sodium hypochlorite
